The values below come from US20230167127A1, “COMPOUNDS AND THEIR USE IN THE TREATMENT OF BACTERIAL INFECTION” (Hoffmann-La Roche Inc., priority 2020, published 2023).

pIC50: −log10 of the molar value. Structures can show the parent of a compound that is named as a salt.

The first test has as its system Escherichia coli ATCC 25922. Description: 50% growth inhibitory concentration (IC50) determination, Iso-Sensitest broth dilution. It counts as cell-based. The conditions noted are these: Escherichia coli, ATCC25922, 16 h, strain Escherichia coli ATCC 25922; 10-point broth dilution, optical density at 600 nm over 16 h; read-out: Escherichia coli growth inhibition IC50. As to the method: 50% Growth Inhibitory Concentration (IC50) Determination
The in vitro antimicrobial activity of the compounds was determined according to the following procedure:
The assay used a 10-point Iso-Sensitest broth dilution method to measure quantitatively the in vitro
ATCC 25922, Acinetobacter baumannii ATCC 17961, Klebsiella pneumoniae ATCC 43816 and Staphylococcus aureus ATCC 29213.
Stock compounds in DMSO were serially twofold diluted (e.g. range from 50 to 0.097 μM final concentration) in 384 wells microtiter plates and inoculated with 50 μL of the bacterial suspension in Iso-
ell of 50 μL/well. Microtiter plates were incubated at 35±2° C.
Bacterial cell growth was determined with the measurement of optical density at λ=600 nm each 20 minutes over a time course of 16 h.
Growth inhibition was calculated during the logarithmic growth of the bacterial cells with
Table 1 provides the 50% growth inhibitory concentrations (IC50) in micromoles per liter of the compounds of present invention obtained against the strain Escherichia coli ATCC 25922.
For orientation: Broth dilution looks for growth in wells or tubes with falling amounts of substance.
For `Cc1nc(OCC2CNC2)c(C)c2c1CC(CNCCC1CN(c3ccc4c(n3)NC(=O)CO4)C(=O)O1)C2` (stereo not drawn) [Example 184, 6-[5-[2-[[3-(azetidin-3-ylmethoxy)-1,4-dimethyl-6,7-dihydro-5H-cyclopenta[c]pyridin-6-yl]methylamino]ethyl]-2-oxo-1,3-oxazolidin-3-yl]-4H-pyrido[3,2-b][1,4]oxazin-3-one hydrochloride], the pIC50 is 6.37. For `Cc1ncc(F)c2c1CC(CN1CC(C3CN(c4cnc5c(n4)NC(=O)CO5)C(=O)O3)C1)C2` (stereo not drawn) [Example 75, 6-[5-[1-[(4-fluoro-1-methyl-6,7-dihydro-5H-cyclopenta[c]pyridin-6-yl)methyl]azetidin-3-yl]-2-oxo-oxazolidin-3-yl]-4H-pyrazino[2,3-b][1,4]oxazin-3-one; formic acid], the pIC50 was 6.64. Still for that read-out and setting: as for `N#Cc1cc(OC[C@H](N)CO)cc2c1CC(CNCCC1CN(c3ccc4c(n3)NC(=O)CO4)C(=O)O1)C2` (stereo partly drawn) [Example 236, 6-[(2R)-2-Amino-3-hydroxypropoxy]-2-[[2-[2-oxo-3-(3-oxo-4H-pyrido[3,2-b][1,4]oxazin-6-yl)-1,3-oxazolidin-5-yl]ethylamino]methyl]-2,3-dihydro-1H-indene-4-carbonitrile], the figure is over 7.01; as for `CNC(=O)COc1ccc2c(c1C#N)CC(CNCCC1CN(c3cnc4c(n3)NC(=O)CO4)C(=O)O1)C2` (stereo not drawn) [Example 286, 2-[[4-cyano-2-[[2-[2-oxo-3-(3-oxo-4H-pyrazino[2,3-b][1,4]oxazin-6-yl)-1,3-oxazolidin-5-yl]ethylamino]methyl]-2,3-dihydro-1H-inden-5-yl]oxy]-N-methylacetamide], over 7.01. Consider `Cc1ncc(F)c2c1CC(CN1CCC3(CC1)CN(c1ccc4c(n1)NC(=O)CO4)C(=O)O3)C2` (stereo not drawn) [Example 72, 6-[8-[(4-fluoro-1-methyl-6,7-dihydro-5H-cyclopenta[c]pyridin-6-yl)methyl]-2-oxo-1-oxa-3,8-diazaspiro[4.5]decan-3-yl]-4H-pyrido[3,2-b][1,4]oxazin-3-one], for which the pIC50 was 7.16. The same measure, in the same setting: the same measure for `Cc1ncc(F)c2c1CC(NCC(O)CC1CN(c3cnc4c(n3)NC(=O)CO4)C(=O)O1)C2` (single isomer, unassigned; isomer c) [Example 315, 6-[2-Oxo-5-[3-[(4-fluoro-1-methyl-6,7-dihydro-5H-cyclopenta[c]pyridin-6-yl)amino]-2-hydroxypropyl]-1,3-oxazolidin-3-yl]-4H-pyrazino[2,3-b][1,4]oxazin-3-one; formic acid, Isomer C]: 6.18. Still for that read-out and setting: as for `NC1c2cccc(Cl)c2CC1CNCCc1cn(-c2ccc3c(n2)NC(=O)CO3)c(=O)o1` (racemic) [Example 170, 6-[2-oxo-5-[2-[[rac-1,2-trans-1-amino-4-chloro-2,3-dihydro-1H-inden-2-yl]methylamino]ethyl]-1,3-oxazol-3-yl]-4H-pyrido[3,2-b][1,4]oxazin-3-one], the figure is over 7.01. The same measure, in the same setting: the same measure for `CC1(CCNCC2Cc3c(Cl)cccc3C2N)CN(c2cnc3c(n2)NC(=O)CO3)C(=O)O1` (racemic) [Example 375, 6-[5-methyl-2-oxo-5-[2-[(rac-1,2-trans-1-amino-4-chloro-2,3-dihydro-1H-inden-2-yl)methylamino]ethyl]-1,3-oxazolidin-3-yl]-4H-pyrazino[2,3-b][1,4]oxazin-3-one]: 6.45; for `N#Cc1cccc2c1CC(N1CCC(C3CN(c4cnc5c(n4)NC(=O)CO5)C(=O)O3)CC1)C2` (stereo not drawn) [Example 349, 2-[4-[2-oxo-3-(3-oxo-4H-pyrazino[2,3-b][1,4]oxazin-6-yl)-1,3-oxazolidin-5-yl]piperidin-1-yl]-2,3-dihydro-1H-indene-4-carbonitrile]: over 7.01; for `CN(C)CCOc1cc(F)c2c(c1)CC(CNCCC1CN(c3ccc4c(n3)NC(=O)CO4)C(=O)O1)C2` (stereo not drawn) [Example 271, 6-[5-[2-[[6-[2-(Dimethylamino)ethoxy]-4-fluoro-2,3-dihydro-1H-inden-2-yl]methylamino]ethyl]-2-oxo-1,3-oxazolidin-3-yl]-4H-pyrido[3,2-b][1,4]oxazin-3-one; formic acid]: over 7.01. In the case of `O=C1COc2ccc(N3CC(CCNCC4Cc5ccncc5C4)OC3=O)nc2N1` (stereo not drawn) [Example 418, 6-[5-[2-(6,7-Dihydro-5H-cyclopenta[c]pyridin-6-ylmethylamino)ethyl]-2-oxo-1,3-oxazolidin-3-yl]-4H-pyrido[3,2-b][1,4]oxazin-3-one], the pIC50 was 6.12. Same read-out and setting: the same measure for `Cc1ncc(F)c2c1C[C@@H](CNCC[C@H]1CN(c3cnc4c(n3)NC(=O)CO4)C(=O)O1)C2` [Example 428, 6-[(5S)-5-[2-[[(6R)-4-fluoro-1-methyl-6,7-dihydro-5H-cyclopenta[c]pyridin-6-yl]methylamino]ethyl]-2-oxo-1,3-oxazolidin-3-yl]-4H-pyrazino[2,3-b][1,4]oxazin-3-one]: over 7.01; for `Cc1nc(OCCNC2CC2)c(C)c2c1CC(CNCCC1CN(c3ccc4c(n3)NC(=O)CO4)C(=O)O1)C2` (stereo not drawn) [Example 189, 6-[5-[2-[[3-[2-(cyclopropylamino)ethoxy]-1,4-dimethyl-6,7-dihydro-5H-cyclopenta[c]pyridin-6-yl]methylamino]ethyl]-2-oxo-1,3-oxazolidin-3-yl]-4H-pyrido[3,2-b][1,4]oxazin-3-one]: 7.00; for `NC(CN1CC2(C1)CN(c1ccc3c(n1)NC(=O)CO3)C(=O)O2)C1Cc2cccc(Cl)c2C1` (stereo not drawn) [Example 159, 6-[2-[2-amino-2-(4-chloro-2,3-dihydro-1H-inden-2-yl)ethyl]-6-oxo-5-oxa-2,7-diazaspiro[3.4]octan-7-yl]-4H-pyrido[3,2-b][1,4]oxazin-3-one; formic acid]: 6.77. For the compound `O=C1COc2ncc(N3CC(CCNCC4Cc5cc(OCCN6CCOC6=O)cc(F)c5C4)OC3=O)nc2N1` (stereo not drawn) [Example 304, 6-[5-[2-[[4-fluoro-6-[2-(2-oxo-1,3-oxazolidin-3-yl)ethoxy]-2,3-dihydro-1H-inden-2-yl]methylamino]ethyl]-2-oxo-1,3-oxazolidin-3-yl]-4H-pyrazino[2,3-b][1,4]oxazin-3-one; formic acid], the pIC50 was 6.35. In the case of `CC(C)(N)COc1cc(F)c2c(c1)CC(CN1CCC3(CC1)CN(c1cnc4c(n1)NC(=O)CO4)C(=O)O3)C2` (single isomer, unassigned; enantiomer a) [Example 377, 6-[8-[[6-(2-Amino-2-methylpropoxy)-4-fluoro-2,3-dihydro-1H-inden-2-yl]methyl]-2-oxo-1-oxa-3,8-diazaspiro[4.5]decan-3-yl]-4H-pyrazino[2,3-b][1,4]oxazin-3-one; formic acid, Enantiomer A], the pIC50 is over 7.01. Consider `Cc1nc(C)c2c(c1C)CC(CNCCC1CN(c3cnc4c(n3)NC(=O)CO4)C(=O)O1)C2` (stereo not drawn) [Example 269, 6-[2-Oxo-5-[2-[(1,3,4-trimethyl-6,7-dihydro-5H-cyclopenta[c]pyridin-6-yl)methylamino]ethyl]-1,3-oxazolidin-3-yl]-4H-pyrazino[2,3-b][1,4]oxazin-3-one], for which the pIC50 is over 7.01. Same read-out and setting: as for `Cc1ncc(F)c2c1CC(CNCCc1cn(-c3cnc4c(n3)NC(=O)CO4)c(=O)o1)C2` (stereo not drawn) [Example 293, 6-[5-[2-[(4-fluoro-1-methyl-6,7-dihydro-5H-cyclopenta[c]pyridin-6-yl)methylamino]ethyl]-2-oxo-1,3-oxazol-3-yl]-4H-pyrazino[2,3-b][1,4]oxazin-3-one], the figure is over 7.01; as for `NC1c2cccc(Cl)c2CC1CNCCC1CN(c2ccc3c(n2)NC(=O)CO3)C(=O)O1` (racemic) [Example 226, 6-[2-Oxo-5-[2-[[rac-1,2-trans-1-amino-4-chloro-2,3-dihydro-1H-inden-2-yl]methylamino]ethyl]-1,3-oxazolidin-3-yl]-4H-pyrido[3,2-b][1,4]oxazin-3-one], over 7.01. With `N#Cc1cccc2c1CC(CNCCC1CN(c3ccc4c(n3)NC(=O)CO4)C(=O)O1)C2` (stereo not drawn) [Example 5, 2-[[2-[2-oxo-3-(3-oxo-4H-pyrido[3,2-b][1,4]oxazin-6-yl)-1,3-oxazolidin-5-yl]ethylamino]methyl]-2,3-dihydro-1H-indene-4-carbonitrile], the pIC50 was over 7.01. The same measure, in the same setting: the same measure for `C[C@H](N)COc1cc(F)c2c(c1)CC(CN1CCC3(CC1)CN(c1cnc4c(n1)NC(=O)CO4)C(=O)O3)C2` (stereo partly drawn) [Example 356, 6-[8-[[6-[(2S)-2-aminopropoxy]-4-fluoro-2,3-dihydro-1H-inden-2-yl]methyl]-2-oxo-1-oxa-3,8-diazaspiro[4.5]decan-3-yl]-4H-pyrazino[2,3-b][1,4]oxazin-3-one; formic acid]: over 7.01; for `N#Cc1cc(OCc2cocn2)cc2c1CC(CNCCC1CN(c3cnc4c(n3)NC(=O)CO4)C(=O)O1)C2` (stereo not drawn) [Example 386, 6-(1,3-oxazol-4-ylmethoxy)-2-[[2-[2-oxo-3-(3-oxo-4H-pyrazino[2,3-b][1,4]oxazin-6-yl)-1,3-oxazolidin-5-yl]ethylamino]methyl]-2,3-dihydro-1H-indene-4-carbonitrile]: over 7.01.

The test is the same for the next values; noted with them: strain Escherichia coli ATCC 25922; 10-point broth dilution, optical density at 600 nm over 16 h; read-out: Escherichia coli growth inhibition IC50.
On to `O=C1COc2ncc(N3CC(CC(O)CNC4Cc5cccc(F)c5C4)OC3=O)nc2N1` (single isomer, unassigned; isomer b) [Example 84, 6-[5-[3-[(4-fluoro-2,3-dihydro-1H-inden-2-yl)amino]-2-hydroxypropyl]-2-oxo-1,3-oxazolidin-3-yl]-4H-pyrazino[2,3-b][1,4]oxazin-3-one, Isomer B; formic acid], for which the pIC50 was 6.66.

In the case of `NC(=O)COc1cc(F)c2c(c1)CC(CNCC[C@@H]1CN(c3cnc4c(n3)NC(=O)CO4)C(=O)O1)C2` (single isomer, unassigned; isomer b) [Example 382], the pIC50 is 6.80.

The pIC50 is the negative decadic logarithm of the IC50, by convention in mol/L.
